# In patent publication US9192601B2, “Methods for enhancing muscle performance and tone” (Salk Institute for Biological Studies, priority 2006, dated 2015):
# Columns and labels:
# Oxygen consumption = format: in vivo, mouse; conditions: AICAR 500 mg/kg/day, 4 weeks
# [1] = tested on: myoglobin, UCP3, cytochrome c (CYCS) and SCDl; test: Western blotting of oxidative biomarkers in quadriceps; format: in vivo, mouse; conditions: AICAR 500 mg/kg/day, 4 weeks, quadriceps
# Experimental: In addition to gene expression, protein expression was determined for selective oxidative biomarkers including myoglobin, UCP3, cytochrome c (CYCS) and SCDl, using Western blotting. Protein homogenates were prepared from quadriceps muscle, separated by SDS polyacrylamide gel electrophoresis, transferred to blotting membrane and probed with antibodies specific for myoglobin (Dako), UCP3 (Affinity Bioreagents), cytochrome c (Santacruz) SCDl (Santacruz), and, as a loading control, tubulin (Sigma).
# AMPK = test: Western blot of phospho-AMPK in quadriceps; format: in vivo, mouse; conditions: AICAR 500 mg/kg/day, 4 weeks, quadriceps
# Source text: Exercise training is known to activate kinases, such as p44/42 MAPK and AMPK, which regulate gene expression in skeletal muscle (Chen et al., Diabetes, 52:2205-12, 2003; Goodyear et al., Am. J. Physiol, 271:[…]-8, 1996). AMPK affects skeletal muscle gene expression and oxidative metabolism (Chen et al., Diabetes. 52: 2205-12, 2003, Reznick et al., J. Physiol. 574: 33-9, 2006). The interaction between exercise-regulated kinases and PPARδ signaling is described in this Example. The levels of phospho-p44/42 MAPK and phospho-AMPK a subunit and total AMPK were determined in protein homogenates of quadriceps muscle by Western blot. Antibodies specific for phospho-p44/42 MAPK, phospho- and total-AMPK αl antibodies were obtained from Cell Signaling. The phospho-specific AMPK αl antibody recognizes the key activating threonine in the activation loop.
# quadriceps muscle = test: Microarray analysis of quadriceps (Affymetrix mouse genome 430A 2.0); format: in vivo
# C57B/6J mice = test: Treadmill running endurance test; format: in vivo, mouse; conditions: 500 mg/kg/day, 4 weeks, no exercise
# Experimental: Mice were acclimated to moderate treadmill running (10 m/min for 15 min) every other day for 1 week. After acclimation, basal running endurance was determined by placing each mouse on a treadmill, gradually increasing the speed from 0 to 15 m/min, and maintaining 15 m/min until the mouse was exhausted. The time and distance run until exhaustion were recorded as the basal endurance values (Week 0).
# Treatments were administered orally.
# Expression of biomarkers characteristic of an oxidative phenotype in skeletal muscle, typically, has been correlated with increased oxidative performance (e.g., increased running endurance) of such skeletal muscle. […] Accordingly, to determine the functional effects of ligand, age and weight matched cohorts of treated and control mice were subjected to an endurance treadmill performance test before (week 0) and after (week 5) treatment.
# In addition to affecting the contractile apparatus of skeletal muscle, exercise training also increases skeletal muscle mitochondrial density (e.g., Freyssenet et al., Arch. Physiol. Biochem., 104(2): 129-141, 1996). […] Mice in all groups were acclimated to moderate treadmill running and basal running endurance was determined as described in Example 1. Thereafter, mice in the exercise-trained groups received four weeks (5 days/week) of exercise training on a treadmill inclined at 5 degrees. […] At the end of four weeks, all exercise-trained mice were running for 50 min/day at 18 m/min. […] Unless otherwise noted, V, GW, Tr and GW+Tr subjects described in this and the examples below were similarly treated. At the end of the drug treatment and/or training protocol (Week 5) 6 mice per group were subjected to the running test. […] RNA was prepared real time quantitative PCR performed as described in Example 1.
# At the end of the drug treatment and/or training protocol (Week 5) 6 mice per group were subjected to the running test.
# At the end of the drug treatment and/or training protocol (Week 5), running endurance of six mice per group was determined in the same manner as was basal running endurance. […] on three mice in each group to confirm that changes observed in the skeletal muscle were not due to the acute run, but were related to the exercise training.
# [2] = AICAR alone, untrained mice, quadriceps
compound,measurement,setting,value
"NC(=O)c1ncn([C@@H]2O[C@H](CO)[C@@H](O)[C@H]2O)c1N [AICAR, 5-amino-4-imidazolecarboxamide riboside]",oxygen consumption,Oxygen consumption,increased
same,expression of UCP3 (immunoblot),[1],increased expression
same,phosphorylation of AMPK a subunit and acetyl CoA carboxylase (ACC),AMPK,increased phosphorylation
same,Aacs expression,quadriceps muscle; [2],1.875
same,Acly expression,quadriceps muscle; [2],1.687
same,Adipoq expression,quadriceps muscle; [2],2.043
same,Ak2 expression,quadriceps muscle; [2],1.486
same,Apoe expression,quadriceps muscle; [2],1.403
same,Cd36 expression,quadriceps muscle; [2],1.386
same,Ces3 expression,quadriceps muscle; [2],1.516
same,Cidea expression,quadriceps muscle; [2],5.021
same,Dgat2 expression,quadriceps muscle; [2],2.034
same,Elovl6 expression,quadriceps muscle; [2],2.134
same,Fabp4 expression,quadriceps muscle; [2],1.709
same,Fasn expression,quadriceps muscle; [2],2.098
same,Lep expression,quadriceps muscle; [2],2.047
same,Lipe expression,quadriceps muscle; [2],1.64
same,Lpl expression,quadriceps muscle; [2],1.386
same,Mgll expression,quadriceps muscle; [2],1.503
same,Mgst1 expression,quadriceps muscle; [2],1.602
same,Nrip1 expression,quadriceps muscle; [2],1.474
same,Pck1 expression,quadriceps muscle; [2],2.68
same,Pcx expression,quadriceps muscle; [2],1.393
same,Pdk4 expression,quadriceps muscle; [2],1.321
same,Pparg expression,quadriceps muscle; [2],3.027
same,Retn expression,quadriceps muscle; [2],1.891
same,Scd1 expression,quadriceps muscle; [2],1.931
same,Sdhd expression,quadriceps muscle; [2],1.529
same,Sfxn1 expression,quadriceps muscle; [2],1.713
same,Slc25a5 expression,quadriceps muscle; [2],1.372
same,Sult1a1 expression,quadriceps muscle; [2],2.021
same,Tspo expression,quadriceps muscle; [2],1.441
same,Ucp1 expression,quadriceps muscle; [2],3.623
same,Ucp3 expression,quadriceps muscle; [2],1.258
same,number of upregulated genes linked to oxidative metabolism,quadriceps muscle; AICAR treatment alone,32 genes
same,ran further than vehicle-treated mice (distance),C57B/6J mice,~44%
same,ran longer than vehicle-treated mice (time),C57B/6J mice,~23%
